In US20070172471A1, “Method for identifying an anti- streptococcal agent and its use for treating streptococcal infections” (Hansa Medical AB, priority 2003, published 2007):
Peptide text beside a SMILES is read from it.

T1: fibrinogen (Homo sapiens, UniProt P02671+P02675+P02679)
T1 sequence (P02671 20-644 isoform P02671-2 limits assumed): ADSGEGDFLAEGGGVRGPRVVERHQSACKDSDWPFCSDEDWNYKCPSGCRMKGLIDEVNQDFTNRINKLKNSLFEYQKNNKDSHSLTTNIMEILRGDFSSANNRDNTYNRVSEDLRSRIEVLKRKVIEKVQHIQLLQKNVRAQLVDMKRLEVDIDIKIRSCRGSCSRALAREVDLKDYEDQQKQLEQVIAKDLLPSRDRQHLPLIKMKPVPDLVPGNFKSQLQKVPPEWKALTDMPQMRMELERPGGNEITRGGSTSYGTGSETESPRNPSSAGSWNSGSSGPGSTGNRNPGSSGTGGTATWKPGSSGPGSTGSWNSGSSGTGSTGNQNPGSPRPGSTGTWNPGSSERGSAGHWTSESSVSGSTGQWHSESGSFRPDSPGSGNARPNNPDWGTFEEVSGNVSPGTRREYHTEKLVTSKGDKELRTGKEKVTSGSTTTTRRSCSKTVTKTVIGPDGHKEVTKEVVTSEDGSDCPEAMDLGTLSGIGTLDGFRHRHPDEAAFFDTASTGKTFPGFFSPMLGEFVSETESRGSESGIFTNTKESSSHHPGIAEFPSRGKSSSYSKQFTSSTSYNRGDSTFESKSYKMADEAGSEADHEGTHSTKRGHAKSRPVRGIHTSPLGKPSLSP
T1 sequence (P02675 31-491): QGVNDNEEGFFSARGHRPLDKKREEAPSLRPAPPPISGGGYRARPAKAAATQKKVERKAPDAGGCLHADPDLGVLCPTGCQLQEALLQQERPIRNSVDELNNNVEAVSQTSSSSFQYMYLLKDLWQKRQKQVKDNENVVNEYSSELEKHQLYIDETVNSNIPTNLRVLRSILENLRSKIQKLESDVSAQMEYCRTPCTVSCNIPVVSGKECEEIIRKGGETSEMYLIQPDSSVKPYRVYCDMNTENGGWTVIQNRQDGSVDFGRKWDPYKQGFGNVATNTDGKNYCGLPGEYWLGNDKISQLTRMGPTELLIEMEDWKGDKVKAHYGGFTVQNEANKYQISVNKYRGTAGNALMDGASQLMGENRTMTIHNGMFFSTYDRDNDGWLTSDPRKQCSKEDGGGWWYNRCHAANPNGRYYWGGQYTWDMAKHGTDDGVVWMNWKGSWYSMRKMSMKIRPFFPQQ
T1 sequence (P02679 27-453): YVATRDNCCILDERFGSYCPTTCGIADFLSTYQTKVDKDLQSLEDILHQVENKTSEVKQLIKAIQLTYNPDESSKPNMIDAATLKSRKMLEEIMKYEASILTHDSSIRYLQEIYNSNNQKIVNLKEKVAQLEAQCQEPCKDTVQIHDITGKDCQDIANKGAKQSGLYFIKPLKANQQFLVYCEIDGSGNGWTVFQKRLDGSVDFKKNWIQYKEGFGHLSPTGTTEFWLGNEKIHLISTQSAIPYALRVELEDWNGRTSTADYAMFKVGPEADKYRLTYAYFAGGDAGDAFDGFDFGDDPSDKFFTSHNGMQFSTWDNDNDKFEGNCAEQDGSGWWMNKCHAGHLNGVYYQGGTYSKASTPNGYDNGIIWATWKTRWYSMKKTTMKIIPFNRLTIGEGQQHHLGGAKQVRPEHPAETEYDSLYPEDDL

B1: Protein H (IgG-binding surface protein of S. pyogenes AP1), recombinant from E. coli (other)
chain: EGAKIDWQEEYKKLDEDNAKLVEVVETTSLENEKLKSENEENKKNLDKLSKENQGKLEKLELDYLKKLDHEHKEHQKEQQEQEERQKNQEQLERKYQREVEKRYQEQLQKQQQLETEKQISEASRKSLSRDLEASRAAKKDLEAEHQKLEAEHQKLKEDKQISDASRQGLSRDLEASRAAKKELEANHQKLEAEHQKLKEDKQISDASRQGLSRDLEASRAAKKELEANHQKLEAEAKALKEQLAKQAEELAKLRAGKASDSQTPDTKPGNKAVPGKGQAPQAGTKPNQNKAPMKETKRQLPST
notes: also called purified protein H
B2: protein H: IgG-binding surface protein of AP1 bacteria, closely related to M1 protein, does not bind fibrinogen (protein)
chain: EGAKIDWQEEYKKLDEDNAKLVEVVETTSLENEKLKSENEENKKNLDKLSKENQGKLEKLELDYLKKLDHEHKEHQKEQQEQEERQKNQEQLERKYQREVEKRYQEQLQKQQQLETEKQISEASRKSLSRDLEASRAAKKDLEAEHQKLEAEHQKLKEDKQISDASRQGLSRDLEASRAAKKELEANHQKLEAEHQKLKEDKQISDASRQGLSRDLEASRAAKKELEANHQKLEAEAKALKEQLAKQAEELAKLRAGKASDSQTPDTKPGNKAVPGKGQAPQAGTKPNQNKAPMKETKRQLPST

Experiments:
[1] = test system: M1 protein-induced release of HBP from PMNs in human blood; conditions: M1 protein 1 μg/ml, 30 min 37° C., FIG. 2 and FIG. 5B
Method: (§1) HBP release. 100 μl human blood were diluted in PBS to a final volume of 1.0 ml and incubated with various PMNs-activating components for 30 min at 37° C. Cells were centrifuged (300×g for 15 min) and the supernatant was analyzed by sandwich ELISA. In order to quantify the total amount of HBP in blood, cells were lysed with 0.02% (v/v) Triton X-100, and pelleted as described above.

[2] = test system: mice of the C57BL/6 strain; conditions: for breathing of mice: thirty minutes after i.v. M1 protein 15 μg/animal, alone or plus peptide 400 μg/animal; for lung damage after injection of the protein alone, scanning electron microscopy / lung lesions after injection of the protein alone, light microscopy: i.v., M1 protein 15 μg/animal, 30 min
[3] = test system: PMNs in human blood; test: HBP release in human blood by streptococcal and other PMN-activating components; assay type: cell-based; conditions: for release of HBP: added to human blood, HBP in supernatant by ELISA, FIG. 1
Method: as §1

[4] = molecular target: T1, fibrinogen; test: Fibrinogen binding on Western blot; conditions: literature statement, demonstrated in the applicant's blot probed with fibrinogen 2 μg/ml
Method: SDS-polyacrylamide gel electrophoresis, Western blotting, and immunoprinting. Proteins were separated by 12.5% (w/v) polyacrylamide gel electrophoresis in the presence of 1% (w/v) SDS (Laemmli, 1970, Nature, 227, 680-685). Molecular weight markers were from Sigma Chemical Co. (St. Louis, Mo.). The resolved proteins were visualized by the silver stain technique. Proteins were also transferred onto nitrocellulose membranes for 30 min at 100 mA (Khyse-Andersen, 1984, J. Biochem. Biophys. Methods, 10, 203-209). The membranes were blocked with PBS containing 5% (w/v) dry milk powder and 0.05% (w/v) Tween-20, pH 7.4. Immunoprinting of the transferred proteins was done according to Towbin et al. (Towbin et al., 1979, Proc. Natl. Acad. Sci. USA, 76, 4350-4354). Polyclonal antibodies against M1 protein, diluted 1:50000 in the blocking buffer, was used. Bound antibodies were detected using a peroxidase-conjugated secondary antibodies against rabbit IgG (dilution 1:3000) followed by a chemiluminescence detection method. Alternatively, membranes were blocked, incubated with fibrinogen (2 μg/ml) followed by immunodetection with antibodies to fibrinogen (1:1000) and peroxidase-conjugated secondary antibodies against rabbit immunoglobulin (1:3000 diluted).

[5] = molecular target: T2, Fibrinogen (human, UniProt P02671 20-630; P02675 31-491; P02679 27-453); test: ligand blot: SDS-PAGE, transfer to nitrocellulose, probed with fibrinogen, immunodetection of bound fibrinogen
T2 construct: also called human fibrinogen; purified fibrinogen

Molecule | effect on M1 protein-induced release of HBP [1] | release of HBP ([3]; 30 min 37° C.) | also measured
COc1cc2ncnc(Nc3cccc(Cl)c3)c2cc1OC [AG1478] | did not interfere with the secretion of HBP |  | 
O=C(O)CN(CCOCCOCCN(CC(=O)O)CC(=O)O)CC(=O)O [EGTA] | blocked HBP release |  | 
CN(C)CCCn1cc(C2=C(c3c[nH]c4ccccc34)C(=O)NC2=O)c2ccccc21 [GF109203] | did not interfere with the secretion of HBP |  | 
N=C(N)NCCC[C@H](NC(=O)[C@H](Cc1c[nH]cn1)NC(=O)CN)C(=O)N1CCC[C@H]1C(=O)O [Gly-His-Arg-Pro] (H-GHRP-OH) |  |  | breathing of mice [2]: clearly affected
O=S(=O)(NCCNC/C=C/c1ccc(Br)cc1)c1cccc2cnccc12 [H-89] | did not interfere with the secretion of HBP |  | 
COc1cccc(-c2cc(=O)c3ccccc3o2)c1N [PD98059] | did not interfere with the secretion of HBP |  | 
COc1ccc2c(c1)CC[C@@H]1[C@@H]2CC[C@]2(C)[C@@H](NCCCCCCN3C(=O)C=CC3=O)CC[C@@H]12 [U-73122] | did not interfere with the secretion of HBP |  | 
CSCC[C@H](NC=O)C(=O)N[C@@H](CC(C)C)C(=O)N[C@@H](Cc1ccccc1)C(=O)O [fMLP, formyl-methionyl-leucyl-phenylalanine] |  | evoked secretion of HBP | 
O=c1c(-c2ccc(O)cc2)coc2cc(O)cc(O)c12 [genistein] | blocked the release of HBP almost completely |  | 
M1 protein: recombinant M1 protein of Streptococcus pyogenes expressed in E. coli (SEQ ID NO: 1) |  |  | binding of fibrinogen [4]: binds fibrinogen with high affinity; ratio of lung area containing protein aggregates versus total lung area ([2]; M1 protein alone i.v., six lung sections per animal, electron microscopy): 90±2%; lung damage after injection of the protein alone, scanning electron microscopy [2]: severe leakage of erythrocytes; lung lesions after injection of the protein alone, light microscopy [2]: severe hemorrhage and tissue destruction; breathing of mice [2]: clearly affected; HBP stored in PMNs mobilized ([3]; M1 protein final concentration 1 μg/ml, human whole blood, 30 min 37° C., FIG. 1A): about 63%; M1 protein concentration of maximal release of HBP from PMNs ([3]; blood diluted 1/10, FIG. 3B): 1 µg/mL
SpeB: streptococcal cysteine proteinase |  | did not induce HBP release | 
hyaluronic acid |  | did not induce HBP release | 
lipoteichoic acid |  | evoked secretion of HBP | 
pertussis toxin | none of the two components inhibited the release of HBP |  | 
B1 |  |  | binding result [5]: no binding
B2 |  | Only minute amounts | binding of fibrinogen [4]: shows no interaction with fibrinogen; lung damage after injection of the protein alone, scanning electron microscopy [2]: did neither cause serious bleeding; lung lesions after injection of the protein alone, light microscopy [2]: no hemorrhage
